Some test systems named below: MOLT-4 leukemia; HT29 colon; SF-268 CNS; SK-MEL-2 melanoma; SNB-75 CNS; SR leukemia; NCI-H522 lung; UACC-257 melanoma; OVCAR-5 ovarian; HOP-92 NSCLC.
Test in all cases: NCI anticancer screen, dose series, 48 h

Values joined by “and” are separate entries in the source; they are usually repeats but may differ in a detail not shown here. Equal values may be shown once.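 Protocol summary: plate cells (96-well), add compound at 5 concentrations, incubate 48 h, interpolate endpoints linearly. The concentration for 50% growth inhibition is given as GI50. TGI: concentration producing complete growth inhibition.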

With `CCCCCCCC/C=C/CCCCCCCC(=O)OC[C@H]1O[C@@H](n2ccc(N)nc2=O)C(F)(F)[C@@H]1O`, the GI50 is 0.0352 µM with MOLT-4 leukemia; 0.097 µM with HT29 colon; less than 0.0224 µM in the test with SF-268 CNS; 14.2 µM with SK-MEL-2 melanoma; 0.36 µM in the test on SNB-75 CNS; less than 0.0134 µM with SR leukemia. Besides, the GI50 with NCI-H522 lung was 0.201 µM; in the test with UACC-257 melanoma it was 0.039 µM; with OVCAR-5 ovarian, 0.724 µM; with HOP-92 NSCLC, 0.141 µM. For the same molecule, the TGI in the test with MOLT-4 leukemia was 5.02 µM; in the test on HT29 colon, greater than 100 µM; in the test on SF-268 CNS it was 19.7 µM; in the test with SK-MEL-2 melanoma, greater than 100 µM; with SNB-75 CNS, greater than 66.1 µM; with SR leukemia, 11.1 µM. For the same molecule, the TGI is greater than 100 µM in the test with NCI-H522 lung, greater than 100 µM with UACC-257 melanoma, greater than 100 µM with OVCAR-5 ovarian and 34.7 µM in the test on HOP-92 NSCLC.
Regarding `Cn1c(=O)c(C(c2ccc([N+](=O)[O-])cc2)c2c(O)c3ccccc3n(C)c2=O)cc2ccccc21` (stereo not drawn), the TGI with MOLT-4 leukemia is greater than 100 µM; with HT29 colon it was greater than 100 µM; with SF-268 CNS it was greater than 100 µM; with SK-MEL-2 melanoma, greater than 100 µM; in the test on SNB-75 CNS it was 85.1 µM; in the test with SR leukemia, greater than 100 µM. Besides, the TGI in the test with NCI-H522 lung is greater than 100 µM; in the test with UACC-257 melanoma it was 45.3 µM; with OVCAR-5 ovarian, 92.7 µM; in the test with HOP-92 NSCLC it was greater than 100 µM.
For the molecule `C1=CC2SSSC2C1` (stereo not drawn), the TGI in the test on MOLT-4 leukemia, with HT29 colon, in the test with SF-268 CNS, in the test on SK-MEL-2 melanoma, in the test with SNB-75 CNS and in the test on SR leukemia was greater than 100 µM in each case. The TGI with NCI-H522 lung, in the test on UACC-257 melanoma, in the test with OVCAR-5 ovarian and with HOP-92 NSCLC was greater than 100 µM in each case.
On to `COc1ccc(-c2n[nH]nc2-c2cc(OC)c(OC)c(OC)c2)cc1`, for which the GI50 is 0.0185 µM in the test with MOLT-4 leukemia; less than 0.01 µM with HT29 colon; 0.0156 µM in the test on SF-268 CNS; less than 0.01 µM with SK-MEL-2 melanoma; less than 0.01 µM with SNB-75 CNS; less than 0.01 µM in the test on SR leukemia. In addition, the GI50 in the test with NCI-H522 lung is less than 0.01 µM; in the test with UACC-257 melanoma it was less than 0.01 µM; in the test with OVCAR-5 ovarian it was less than 0.01 µM; in the test with HOP-92 NSCLC, less than 0.0195 µM. The TGI in the test on HT29 colon was 0.0481 µM; in the test on SF-268 CNS, greater than 100 µM; with SK-MEL-2 melanoma, 43.4 µM; in the test on SNB-75 CNS it was 92.9 µM; with SR leukemia it was greater than 47.9 µM; with NCI-H522 lung it was less than 0.01 µM. For the same molecule, the TGI in the test on UACC-257 melanoma was 31.2 µM; with OVCAR-5 ovarian it was greater than 100 µM; in the test with HOP-92 NSCLC it was 30.6 µM.
Take `O=C1OC(c2ccccc2)=N/C1=C\c1cccc2ccccc12`: the TGI with MOLT-4 leukemia, in the test on HT29 colon, in the test on SF-268 CNS, with SK-MEL-2 melanoma, in the test on SNB-75 CNS and in the test with SR leukemia was greater than 100 µM throughout. Further, the TGI with NCI-H522 lung, with UACC-257 melanoma, in the test on OVCAR-5 ovarian and with HOP-92 NSCLC was greater than 100 µM throughout.
`CC(=O)/C(C)=N/NC(=O)c1ccccc1O`: the TGI with MOLT-4 leukemia, in the test with HT29 colon, with SF-268 CNS, in the test on SK-MEL-2 melanoma, in the test with SNB-75 CNS and in the test on SR leukemia was greater than 100 µM each time. Also, the TGI is greater than 100 µM in the test on NCI-H522 lung, greater than 100 µM in the test on UACC-257 melanoma, greater than 100 µM with OVCAR-5 ovarian and greater than 10 µM in the test with HOP-92 NSCLC. Besides, the GI50 in the test on HT29 colon, in the test on SF-268 CNS, with SK-MEL-2 melanoma, in the test on SNB-75 CNS, in the test with UACC-257 melanoma and with OVCAR-5 ovarian was greater than 100 µM in each case.
For the molecule `COc1ccc(C(=O)C(C(=O)CCC(=O)Nc2cccc(Cl)c2)c2ccc(OC)cc2)cc1` (stereo not drawn), the TGI in the test on MOLT-4 leukemia, in the test with HT29 colon, in the test on SF-268 CNS, in the test on SK-MEL-2 melanoma, in the test with SNB-75 CNS and in the test with SR leukemia was greater than 100 µM throughout. Also, the TGI in the test with NCI-H522 lung, in the test on UACC-257 melanoma, in the test on OVCAR-5 ovarian and in the test with HOP-92 NSCLC was greater than 100 µM each time.
With `Oc1cccnc1CN1CCCCC1`, the TGI in the test on MOLT-4 leukemia, in the test with HT29 colon, in the test with SF-268 CNS, in the test with SK-MEL-2 melanoma, in the test with SNB-75 CNS and in the test on SR leukemia was greater than 100 µM in each case. Also, the TGI in the test with NCI-H522 lung, in the test with UACC-257 melanoma, with OVCAR-5 ovarian and in the test with HOP-92 NSCLC was greater than 100 µM each time.
Take `COc1cccc2c1C(=O)c1c(O)c3c(c(O)c1C2=O)C[C@@](O)(C(C)=O)C[C@@H]3OC1OC(C)C(O)C(N)C1Br` (stereo partly drawn): the TGI is 0.0266 µM in the test on MOLT-4 leukemia; 0.573 µM in the test on HT29 colon; 3.63 µM and 1.21 µM in the test with SF-268 CNS; 0.715 µM and 0.704 µM with SK-MEL-2 melanoma; 0.0185 µM with SR leukemia; 0.449 µM and 0.324 µM in the test with NCI-H522 lung. Besides, the TGI is 0.487 µM and 1.14 µM with UACC-257 melanoma; 0.663 µM and 0.704 µM in the test with OVCAR-5 ovarian; 0.422 µM and 0.474 µM with HOP-92 NSCLC. Besides, the GI50 is 0.0365 µM in the test on SF-268 CNS; 0.198 µM in the test with SK-MEL-2 melanoma; 0.151 µM in the test on SNB-75 CNS; 0.0563 µM in the test with NCI-H522 lung; 0.123 µM in the test on UACC-257 melanoma; 0.0554 µM with OVCAR-5 ovarian. For the same molecule, the GI50 in the test on HOP-92 NSCLC was 0.0602 µM.
On to `COc1cc2c(c(OC)c1OC)-c1ccc(OC)c(=O)cc1[C@@H](NC(=O)c1ccccc1)CC2`, for which the GI50 was less than 0.003 µM in the test with MOLT-4 leukemia; 0.00658 µM with HT29 colon; less than 0.003 µM in the test with SK-MEL-2 melanoma; 0.00357 µM with NCI-H522 lung; 24.2 µM in the test with UACC-257 melanoma; less than 0.003 µM with OVCAR-5 ovarian. For the same molecule, the TGI in the test with MOLT-4 leukemia is 30 µM and > 73.2 µM; with SF-268 CNS, 33.1 µM; in the test on SNB-75 CNS, 33.8 µM; with SR leukemia, greater than 100 µM; in the test on NCI-H522 lung, 0.0125 µM and 0.0205 µM; with UACC-257 melanoma it was 30 µM and > 100 µM. In addition, the TGI in the test with OVCAR-5 ovarian was 30 µM and > 94.1 µM; in the test with HOP-92 NSCLC, 6.68 µM.
As to `Cc1nc(N)sc1C(=O)/C=C\c1ccc2c(c1)OCO2`, the TGI in the test on MOLT-4 leukemia, in the test on HT29 colon, with SF-268 CNS, in the test on SK-MEL-2 melanoma, with SNB-75 CNS and in the test with SR leukemia was greater than 100 µM throughout. For the same molecule, the TGI with NCI-H522 lung, in the test on UACC-257 melanoma, with OVCAR-5 ovarian and with HOP-92 NSCLC was greater than 100 µM throughout.
With `CCOC(=O)C1=C(C)N(NC(=O)Nc2ccccc2)C(=O)C1=P(c1ccccc1)(c1ccccc1)c1ccccc1`, the TGI with MOLT-4 leukemia is 65.6 µM; in the test with HT29 colon, greater than 100 µM; in the test on SF-268 CNS it was greater than 100 µM; in the test on SK-MEL-2 melanoma, 98.3 µM; with SNB-75 CNS it was greater than 100 µM; in the test on SR leukemia, 56.1 µM. For the same molecule, the TGI is 63.8 µM with NCI-H522 lung, greater than 100 µM in the test on UACC-257 melanoma, greater than 100 µM in the test with OVCAR-5 ovarian and greater than 100 µM in the test with HOP-92 NSCLC.
As for `NCCCCN(CCCN)/[N+]([O-])=N\O`, the TGI in the test with MOLT-4 leukemia, with HT29 colon, in the test on SF-268 CNS, in the test with SK-MEL-2 melanoma, with SNB-75 CNS and with SR leukemia was greater than 100 µM each time. The TGI in the test with NCI-H522 lung, in the test on UACC-257 melanoma, in the test on OVCAR-5 ovarian and in the test with HOP-92 NSCLC was greater than 100 µM throughout.
As to `COC(=O)C1=C(C)N(NC(=O)OC(C)(C)C)C(=O)C1=P(c1ccccc1)(c1ccccc1)c1ccccc1`, the TGI with MOLT-4 leukemia, in the test on HT29 colon, in the test with SF-268 CNS, in the test on SK-MEL-2 melanoma, in the test on SNB-75 CNS and in the test with SR leukemia was greater than 100 µM throughout. Further, the TGI with NCI-H522 lung, with UACC-257 melanoma, in the test on OVCAR-5 ovarian and with HOP-92 NSCLC was greater than 100 µM in each case.
Regarding `NS(=O)(=O)c1ccc(NC2(C(=O)O)CCCC2)cc1`, the TGI in the test with MOLT-4 leukemia, with HT29 colon, in the test with SF-268 CNS, in the test with SK-MEL-2 melanoma, in the test on SNB-75 CNS and in the test on SR leukemia was greater than 100 µM throughout. The TGI with NCI-H522 lung, in the test on UACC-257 melanoma, in the test on OVCAR-5 ovarian and with HOP-92 NSCLC was greater than 100 µM throughout.
`COc1cc(-c2ccc3c(c2)NC(=O)/C3=C\c2ccc[nH]2)ccc1O`: the GI50 with MOLT-4 leukemia was 0.032 µM; in the test with HT29 colon, 1.05 µM; in the test with SF-268 CNS, 0.377 µM; in the test on SK-MEL-2 melanoma, 0.034 µM; in the test with SNB-75 CNS, 0.0201 µM; with SR leukemia it was 0.014 µM. The GI50 in the test with NCI-H522 lung is 0.00747 µM; in the test on OVCAR-5 ovarian, 0.799 µM; in the test with HOP-92 NSCLC, greater than 24.7 µM. Also, the TGI is greater than 22.1 µM in the test with MOLT-4 leukemia; greater than 50 µM in the test with HT29 colon; greater than 50 µM in the test on SF-268 CNS; greater than 50 µM in the test on SK-MEL-2 melanoma; greater than 50 µM in the test with SNB-75 CNS; greater than 30.5 µM in the test on SR leukemia. Further, the TGI in the test on NCI-H522 lung, in the test on OVCAR-5 ovarian and in the test on HOP-92 NSCLC was greater than 50 µM in each case.

The record behind these values is PubChem BioAssay (NCI).
